The text below walks through data of patent US20130045983A1, “HSP90 INHIBITORS FOR THERAPEUTIC TREATMENT” (Novartis AG, priority 2008, published 2013).

Common to all, as to assay type: cell-based
The test system of one test is OVXF 1353. Briefly: Clonogenic assay, OVXF 1353. The conditions noted are these: Homo sapiens, Ovary, Adenocarcinoma, soft agar, read-out: IC50 (colony formation). How it is done:
(§1) The anticancer activity of (R)-2-amino-7-[2-(6-methoxy-pyridin-2-yl)-phenyl]-4-methyl-7,8-dihydro-6H-pyrido[4,3-d]pyrimidin-5-one is evaluated in 30 human tumor xenografts in vitro using a clonogenic assay. In this assay, human cells derived from cancer patients are evaluated for the capacity of (R)-2-amino-7-[2-(6-methoxy-pyridin-2-yl)-phenyl]-4-methyl-7,8-dihydro-6H-pyrido[4,3-d]pyrimidin-5-one to inhibit the formation of 3 dimensional colonies. […] The tumor xenografts which have never been cultured in cell culture plastic dishes are isolated from nude mice. Tumor cell suspensions are prepared and incubated in 24 well plates containing layers of soft agar. Under these conditions a special subpopulation of cells selectively grows to colonies. (R)-2-amino-7-[2-(6-methoxy-pyridin-2-yl)-phenyl]-4-methyl-7,8-dihydro-6H-pyrido[4,3-d]pyrimidin-5one is tested in 6 concentrations up to 1000 nM. The tumor test panel comprises 1 to 10 models of 12 different human tumor types, which were bladder cancer, colon, gastric, non small cell lung (adeno, squamous cell, and large cell), small cell lung, mammary, ovary, and prostate cancer, as well as leukemia, lymphoma, melanoma, and sarcoma. Antitumor effects are recorded as inhibition of colony formation in relation to untreated controls. […]

The test system of another test is LXFA 629. Kind of test: Clonogenic assay, LXFA 629. As to conditions: Homo sapiens, Lung, non-small cell, Adenocarcinoma, soft agar, read-out: IC50 (colony formation). How it is done: as §1
A further test relates to OPM-2. Kind of test: Cell proliferation assay, OPM-2 (multiple myeloma). The conditions noted are these: Homo sapiens, 72 hours in presence of compound. The procedure:
(§2) Seventeen cancer derived cell lines are used (GTL-16, N87, H1975, A549, H69, A2780, PC3, BT474, SKBR3, MCF-7, A375, MV4;11, K562, KM12L4A, H929, OPM-2 and KMS-11) to test the effect of (R)-2-amino-7-[2-(6-methoxy-pyridin-2-yl)-phenyl]-4-methyl-7,8-dihydro-6H-pyrido[4,3-d]pyrimidin-5-one. These cell lines cover the following 9 tumor types: Gastric, Lung, Ovarian, Prostate, Breast, Melanoma, Leukemia, Colon and Multiple myeloma. After division and medium change, cells from stock culture are seeded on cell plates and cultured for about 18 hours to allow cell growth and attachment before starting the assay. Then on the first day of the assay, (R)-2-amino-7-[2-(6-methoxy-pyridin-2-yl)-phenyl]-4-methyl-7,8-dihydro-6H-pyrido[4,3-d]pyrimidin-5-one is added to the medium at various concentrations. Cells are cultured up to 72 or 96 hours and cell proliferation is determined using commercially available cell proliferation kits.
(§3) Table 1 relates to the concentration in nM of (R)-2-amino-7-[2-(6-methoxy-pyridin-2-yl)-phenyl]-4-methyl-7,8-dihydro-6H-pyrido[4,3-d]pyrimidin-5-one which inhibits cell proliferation by 50% (IC50). […]

Another test has as its system CXF 243. Briefly: Clonogenic assay, CXF 243. The conditions noted are these: Homo sapiens, Colon, Adenocarcinoma, soft agar, read-out: IC50 (colony formation). The procedure: as §1
Another test concerns K562. Briefly: Cell proliferation assay, K562 (leukemia). The conditions noted are these: Homo sapiens, 72 hours in presence of compound. The procedure:
as §2, §3

Another test deals with LXFA 677. Kind of test: Clonogenic assay, LXFA 677. The conditions noted are these: Homo sapiens, Lung, non-small cell, Adenocarcinoma, soft agar, read-out: IC50 (colony formation). How it is done: as §1
In the next test the test system is PRXF DU145. Briefly: Clonogenic assay, PRXF DU145. As to conditions: Homo sapiens, DU-145, Prostate, Adenocarcinoma, soft agar, read-out: IC50 (colony formation). The procedure: as §1
The next test relates to GTL-16. Briefly: Cell proliferation assay, GTL-16 (gastric). As to conditions: Homo sapiens, 72 hours in presence of compound. How it is done: as §2, §3
Another test has as its system BXF 1258. Kind of test: Clonogenic assay, BXF 1258. The conditions noted are these: Homo sapiens, Bladder, Transitional cell carcinoma, soft agar, read-out: IC50 (colony formation). The procedure:
as §1

Another test deals with LXFA 289. Briefly: Clonogenic assay, LXFA 289. The conditions noted are these: Homo sapiens, Lung, non-small cell, Adenocarcinoma, soft agar, read-out: IC50 (colony formation). The procedure: as §1
The subject of the next test is GXF 209. Kind of test: Clonogenic assay, GXF 209. As to conditions: Homo sapiens, Stomach, Signet-ring cell carcinoma, soft agar, read-out: IC50 (colony formation). The procedure: as §1
The test system of a further test is H929. Kind of test: Cell proliferation assay, H929 (multiple myeloma). As to conditions: Homo sapiens, NCI-H929, 72 hours in presence of compound. How it is done:
as §2, §3

For a further test, the system named is LXFS 660. Kind of test: Clonogenic assay, LXFS 660. The conditions noted are these: Homo sapiens, Lung, small cell, Small cell lung carcinoma, soft agar, read-out: IC50 (colony formation). How it is done: as §1
The test system of the next test is LEXF MOLT4. Briefly: Clonogenic assay, LEXF MOLT4. The conditions noted are these: Homo sapiens, MOLT-4, Leukemia, ALL, T lymphoblast, soft agar, read-out: IC50 (colony formation). How it is done: as §1
A further test concerns SXF 463. Briefly: Clonogenic assay, SXF 463. The conditions noted are these: Homo sapiens, Sarcoma, Rhabdomyosarcoma, soft agar, read-out: IC50 (colony formation). How it is done: as §1
A further test deals with MEXF 462. Briefly: Clonogenic assay, MEXF 462. The conditions noted are these: Homo sapiens, Amelanotic melanoma, soft agar, read-out: IC50 (colony formation). The procedure: as §1
Another test relates to MAXF 1322. Kind of test: Clonogenic assay, MAXF 1322. As to conditions: Homo sapiens, Breast, Pap. adenocarcinoma, soft agar, read-out: IC50 (colony formation). The procedure:
as §1

In a further test the test system is LXFA 737. Briefly: Clonogenic assay, LXFA 737. As to conditions: Homo sapiens, Lung, non-small cell, Adenocarcinoma, soft agar, read-out: IC50 (colony formation). How it is done:
as §1

The next test deals with BT474. Briefly: Cell proliferation assay, BT474 (breast). The conditions noted are these: Homo sapiens, BT-474, 72 hours in presence of compound. The procedure: as §2, §3
Another test deals with MAXF 583. Briefly: Clonogenic assay, MAXF 583. As to conditions: Homo sapiens, Breast, Ductual adenocarcinoma, soft agar, read-out: IC50 (colony formation). The procedure: as §1
The subject of the next test is LXFA 526. Briefly: Clonogenic assay, LXFA 526. As to conditions: Homo sapiens, Lung, non-small cell, Adenocarcinoma, soft agar, read-out: IC50 (colony formation). How it is done:
as §1

On to `COc1cccc(-c2ccccc2[C@H]2Cc3nc(N)nc(C)c3C(=O)N2)n1` [(R)-2-amino-7-[2-(6-methoxy-pyridin-2-yl)-phenyl]-4-methyl-7,8-dihydro-6H-pyrido[4,3-d]pyrimidin-5-one], for which the IC50 (as a rule, the point on the concentration scale where inhibition reaches its midpoint) was 0.053 µM in the test with OVXF 1353; 0.027 µM with LXFA 629; 0.044 µM in the test with CXF 243; 0.027 µM in the test on LXFA 677; 0.017 µM in the test on PRXF DU145; 0.316 µM in the test on BXF 1258. The IC50 in the test with LXFA 289 is 0.639 µM; in the test on GXF 209, 0.028 µM; with LXFS 660 it was 0.006 µM; in the test on LEXF MOLT4 it was 0.021 µM; in the test on SXF 463 it was 0.005 µM; with MEXF 462 it was 0.065 µM. For the same compound, the IC50 in the test with MAXF 1322 was 0.052 µM; in the test on LXFA 737, 0.026 µM; with MAXF 583, 0.024 µM; in the test with LXFA 526 it was 0.036 µM. Besides, the GI50 (usually the concentration that inhibits growth by half) in the test with OPM-2 was determined as 0.013 µM; in the test on K562, 0.024 µM; in the test with GTL-16, 0.018 µM; in the test with H929 it was 0.02 µM; in the test with BT474 it was 0.006 µM.
